# From ChEMBL document CHEMBL1153552, “Comparative in vitro pharmacodynamics of caspofungin, micafungin, and anidulafungin against germinated and nongerminated Aspergillus conidia” (2008)
# Activity calls are given as the source filed them. No cut-off for these calls is given here. Numbered stars: 1 amine (or outer) side, 2 acyl side, 3 side chain; on linkers, the order of the positions; unused ones are H or OH. Bridge positions count the residues as written; N and C are the ends. Square brackets hold non-standard residues; d marks the D form. Peptide text beside a SMILES is read from it. * marks the point of attachment. pTerphenylCO(4''-OnC5H11) = CCCCCOc1ccc(-c2ccc(-c3ccc(C(=O)*)cc3)cc2)cc1; Orn(4R-OH,5R-OH) = O=C([C@H](C[C@@H](O)[C@@H](O)N[*:3])N[*:1])[*:2]; hTyr(3S-OH,4S-OH) = N[C@H](C(=O)O)[C@H](O)[C@@H](O)c1ccc(O)cc1; Pro(3S-OH,4S-Me) = C[C@H]1CN[C@H](C(=O)O)[C@H]1O; Hyp = O=C(O)[C@@H]1C[C@@H](O)CN1
# Columns and labels:
# Aspergillus fumigatus [1] = experiment: Antifungal activity against nongerminated Aspergillus fumigatus assessed as lowest drug concentration that produced short, stubby and highly branched hyphae after 48 hrs by microscopic analysis; type: functional; settings: read-out: MEC
# Aspergillus fumigatus [2] = experiment: Antifungal activity against germinated Aspergillus fumigatus assessed as lowest drug concentration that produced short, stubby and highly branched hyphae after 48 hrs by microscopic analysis; type: functional; settings: read-out: MEC
# Aspergillus fumigatus [3] = experiment: Ratio of log2 of MEC for germinated Aspergillus fumigatus to log2 of MEC for nongerminated Aspergillus fumigatus; type: functional
# Aspergillus terreus [4] = experiment: Antifungal activity against nongerminated Aspergillus terreus assessed as lowest drug concentration that produced short, stubby and highly branched hyphae after 48 hrs by microscopic analysis; type: functional; settings: read-out: MEC
# Aspergillus terreus [5] = experiment: Antifungal activity against germinated Aspergillus terreus assessed as lowest drug concentration that produced short, stubby and highly branched hyphae after 48 hrs by microscopic analysis; type: functional; settings: read-out: MEC
# Aspergillus terreus [6] = experiment: Ratio of log2 of MEC for germinated Aspergillus terreus to log2 of MEC for nongerminated Aspergillus terreus; type: functional
# Aspergillus flavus [7] = experiment: Antifungal activity against nongerminated Aspergillus flavus assessed as lowest drug concentration that produced short, stubby and highly branched hyphae after 48 hrs by microscopic analysis; type: functional; settings: read-out: MEC
# Aspergillus flavus [8] = experiment: Antifungal activity against germinated Aspergillus flavus assessed as lowest drug concentration that produced short, stubby and highly branched hyphae after 48 hrs by microscopic analysis; type: functional; settings: read-out: MEC
# Aspergillus flavus [9] = experiment: Ratio of log2 of MEC for germinated Aspergillus flavus to log2 of MEC for nongerminated Aspergillus flavus; type: functional
# Aspergillus fumigatus [10] = experiment: Effect on nongerminated Aspergillus fumigatus metabolic activity assessed as drug concentration at which fungal metabolic activity occurs after 2 hrs by XTT assay; type: functional
# Aspergillus fumigatus [11] = experiment: Effect on germinated Aspergillus fumigatus metabolic activity assessed as drug concentration at which fungal metabolic activity occurs after 2 hrs by XTT assay; type: functional
# Aspergillus fumigatus [12] = experiment: Effect on Aspergillus fumigatus metabolic activity assessed number of twofold drug dilutions required for germinated fungal metabolic activity to nongerminated fungal metabolic activity; type: functional
# Aspergillus terreus [13] = experiment: Effect on nongerminated Aspergillus terreus metabolic activity assessed as drug concentration at which fungal metabolic activity occurs after 2 hrs by XTT assay; type: functional
# Aspergillus terreus [14] = experiment: Effect on germinated Aspergillus terreus metabolic activity assessed as drug concentration at which fungal metabolic activity occurs after 2 hrs by XTT assay; type: functional
# Aspergillus terreus [15] = experiment: Effect on Aspergillus terreus metabolic activity assessed number of twofold drug dilutions required for germinated fungal metabolic activity to nongerminated fungal metabolic activity; type: functional
# Aspergillus flavus [16] = experiment: Effect on nongerminated Aspergillus flavus metabolic activity assessed as drug concentration at which fungal metabolic activity occurs after 2 hrs by XTT assay; type: functional
# Aspergillus flavus [17] = experiment: Effect on germinated Aspergillus flavus metabolic activity assessed as drug concentration at which fungal metabolic activity occurs after 2 hrs by XTT assay; type: functional
# Aspergillus flavus [18] = experiment: Effect on Aspergillus flavus metabolic activity assessed number of twofold drug dilutions required for germinated fungal metabolic activity to nongerminated fungal metabolic activity; type: functional
# Aspergillus fumigatus [19] = experiment: Induction of maximal metabolic inhibition in nongerminated Aspergillus fumigatus assessed as minimal metabolic activity Ymin after 2 hrs by XTT assay; type: functional; design: scale not given: the % may be the effect or the level left
# Aspergillus fumigatus [20] = experiment: Induction of maximal metabolic inhibition in germinated Aspergillus fumigatus assessed as minimal metabolic activity Ymin after 2 hrs by XTT assay; type: functional; design: scale not given: the % may be the effect or the level left
# Aspergillus terreus [21] = experiment: Induction of maximal metabolic inhibition in nongerminated Aspergillus terreus assessed as minimal metabolic activity Ymin after 2 hrs by XTT assay; type: functional; design: scale not given: the % may be the effect or the level left
# Aspergillus terreus [22] = experiment: Induction of maximal metabolic inhibition in germinated Aspergillus terreus assessed as minimal metabolic activity Ymin after 2 hrs by XTT assay; type: functional; design: scale not given: the % may be the effect or the level left
# Aspergillus flavus [23] = experiment: Induction of maximal metabolic inhibition in nongerminated Aspergillus flavus assessed as minimal metabolic activity Ymin after 2 hrs by XTT assay; type: functional; design: scale not given: the % may be the effect or the level left
# Aspergillus flavus [24] = experiment: Induction of maximal metabolic inhibition in germinated Aspergillus flavus assessed as minimal metabolic activity Ymin after 2 hrs by XTT assay; type: functional; design: scale not given: the % may be the effect or the level left
# Aspergillus fumigatus [25] = experiment: Increase in metabolic activity of nongerminated Aspergillus fumigatus assessed as formation of short, stubby aberrant hyphae at 0.03 ug/mL after 48 hrs by XTT assay; type: functional, organism-based
# Aspergillus fumigatus [26] = experiment: Increase in metabolic activity of germinated Aspergillus fumigatus assessed as formation of short, stubby aberrant hyphae at 0.03 ug/mL after 48 hrs by XTT assay; type: functional, organism-based
# Aspergillus terreus [27] = experiment: Increase in metabolic activity of nongerminated Aspergillus terreus assessed as formation of short, stubby aberrant hyphae at 0.03 ug/mL after 48 hrs by XTT assay; type: functional, organism-based
# Aspergillus terreus [28] = experiment: Increase in metabolic activity of germinated Aspergillus terreus assessed as formation of short, stubby aberrant hyphae at 0.03 ug/mL after 48 hrs by XTT assay; type: functional, organism-based
# Aspergillus flavus [29] = experiment: Increase in metabolic activity of nongerminated Aspergillus flavus assessed as formation of short, stubby aberrant hyphae at 0.03 ug/mL after 48 hrs by XTT assay; type: functional, organism-based
# Aspergillus flavus [30] = experiment: Increase in metabolic activity of germinated Aspergillus flavus assessed as formation of short, stubby aberrant hyphae at 0.03 ug/mL after 48 hrs by XTT assay; type: functional, organism-based
# Aspergillus fumigatus [31] = experiment: Increase in metabolic activity of nongerminated Aspergillus fumigatus assessed as elongation of short, stubby aberrant hyphae at 2 ug/mL after 48 hrs by XTT assay; type: functional, organism-based
# Aspergillus fumigatus [32] = experiment: Increase in metabolic activity of germinated Aspergillus fumigatus assessed as elongation of short, stubby aberrant hyphae at 2 ug/mL after 48 hrs by XTT assay; type: functional, organism-based
# Aspergillus terreus [33] = experiment: Increase in metabolic activity of nongerminated Aspergillus terreus assessed as elongation of short, stubby aberrant hyphae at 2 ug/mL after 48 hrs by XTT assay; type: functional, organism-based
# Aspergillus terreus [34] = experiment: Increase in metabolic activity of germinated Aspergillus terreus assessed as elongation of short, stubby aberrant hyphae at 2 ug/mL after 48 hrs by XTT assay; type: functional, organism-based
# Aspergillus flavus [35] = experiment: Increase in metabolic activity of nongerminated Aspergillus flavus assessed as elongation of short, stubby aberrant hyphae at 2 ug/mL after 48 hrs by XTT assay; type: functional, organism-based
# Aspergillus flavus [36] = experiment: Increase in metabolic activity of germinated Aspergillus flavus assessed as elongation of short, stubby aberrant hyphae at 2 ug/mL after 48 hrs by XTT assay; type: functional, organism-based
# Aspergillus fumigatus [37] = experiment: Increase in metabolic activity of nongerminated Aspergillus fumigatus elongation of short, stubby aberrant hyphae at 16 ug/mL after 48 hrs by XTT assay; type: functional, organism-based
# Aspergillus fumigatus [38] = experiment: Increase in metabolic activity of germinated Aspergillus fumigatus assessed as elongation of short, stubby aberrant hyphae at 16 ug/mL after 48 hrs by XTT assay; type: functional, organism-based
# Aspergillus terreus [39] = experiment: Increase in metabolic activity of nongerminated Aspergillus terreus assessed as elongation of short, stubby aberrant hyphae at 16 ug/mL after 48 hrs by XTT assay; type: functional, organism-based
# Aspergillus terreus [40] = experiment: Increase in metabolic activity of germinated Aspergillus terreus assessed as elongation of short, stubby aberrant hyphae at 16 ug/mL after 48 hrs by XTT assay; type: functional, organism-based
# Aspergillus flavus [41] = experiment: Increase in metabolic activity of nongerminated Aspergillus flavus assessed as elongation of short, stubby aberrant hyphae at 16 ug/mL after 48 hrs by XTT assay; type: functional, organism-based
# Aspergillus flavus [42] = experiment: Increase in metabolic activity of germinated Aspergillus flavus assessed as elongation of short, stubby aberrant hyphae at 16 ug/mL after 48 hrs by XTT assay; type: functional, organism-based
# Aspergillus fumigatus [43] = experiment: Antifungal activity against nongerminated Aspergillus fumigatus assessed as absence of visual fungal growth at 128 ug/mL; type: functional, organism-based
# Aspergillus fumigatus [44] = experiment: Antifungal activity against germinated Aspergillus fumigatus assessed as absence of visual fungal growth at 128 ug/mL; type: functional, organism-based
# Aspergillus terreus [45] = experiment: Antifungal activity against nongerminated Aspergillus terreus assessed as absence of visual fungal growth at 128 ug/mL; type: functional, organism-based
# Aspergillus terreus [46] = experiment: Antifungal activity against germinated Aspergillus terreus assessed as absence of visual fungal growth at 128 ug/mL; type: functional, organism-based
# Aspergillus flavus [47] = experiment: Antifungal activity against nongerminated Aspergillus flavus assessed as absence of visual fungal growth at 128 ug/mL; type: functional, organism-based
# Aspergillus flavus [48] = experiment: Antifungal activity against germinated Aspergillus flavus assessed as absence of visual fungal growth at 128 ug/mL; type: functional, organism-based
# Aspergillus fumigatus [49] = experiment: Antifungal activity against nongerminated Aspergillus fumigatus assessed as absence of visual fungal growth at 64 ug/mL; type: functional, organism-based
# Aspergillus fumigatus [50] = experiment: Antifungal activity against germinated Aspergillus fumigatus assessed as absence of visual fungal growth at 64 ug/mL; type: functional, organism-based
# Aspergillus terreus [51] = experiment: Antifungal activity against nongerminated Aspergillus terreus assessed as absence of visual fungal growth at 64 ug/mL; type: functional, organism-based
# Aspergillus terreus [52] = experiment: Antifungal activity against germinated Aspergillus terreus assessed as absence of visual fungal growth at 64 ug/mL; type: functional, organism-based
# Aspergillus flavus [53] = experiment: Antifungal activity against nongerminated Aspergillus flavus assessed as absence of visual fungal growth at 64 ug/mL; type: functional, organism-based
# Aspergillus flavus [54] = experiment: Antifungal activity against germinated Aspergillus flavus assessed as absence of visual fungal growth at 64 ug/mL; type: functional, organism-based
smiles,measurement,setting,value
"CCCCCOc1ccc(-c2ccc(-c3ccc(C(=O)N[C@H]4C[C@@H](O)[C@@H](O)NC(=O)[C@@H]5[C@@H](O)[C@@H](C)CN5C(=O)[C@H]([C@@H](C)O)NC(=O)[C@H]([C@H](O)[C@@H](O)c5ccc(O)cc5)NC(=O)[C@@H]5C[C@@H](O)CN5C(=O)[C@H]([C@@H](C)O)NC4=O)cc3)cc2)cc1 [ANIDULAFUNGIN] ({pTerphenylCO(4''-OnC5H11)}-[Orn(4R-OH,5R-OH)]T[Hyp][hTyr(3S-OH,4S-OH)]T[Pro(3S-OH,4S-Me)]; lactam 1-C)",minimal effective concentration,Aspergillus fumigatus [1],0.03 µg/mL
same,minimal effective concentration,Aspergillus fumigatus [2],0.12 µg/mL
same,Ratio,Aspergillus fumigatus [3],2
same,minimal effective concentration,Aspergillus terreus [4],0.03 µg/mL
same,minimal effective concentration,Aspergillus terreus [5],0.25 µg/mL
same,Ratio,Aspergillus terreus [6],3
same,minimal effective concentration,Aspergillus flavus [7],0.03 µg/mL
same,minimal effective concentration,Aspergillus flavus [8],0.25 µg/mL
same,Ratio,Aspergillus flavus [9],2.5
same,EC5,Aspergillus fumigatus [10],0.03 µg/mL
same,EC5,Aspergillus fumigatus [11],0.11 µg/mL
same,Ratio,Aspergillus fumigatus [12],2.4
same,EC5,Aspergillus terreus [13],0.01 µg/mL
same,EC5,Aspergillus terreus [14],0.1 µg/mL
same,Ratio,Aspergillus terreus [15],2.97
same,EC5,Aspergillus flavus [16],0.01 µg/mL
same,EC5,Aspergillus flavus [17],0.09 µg/mL
same,Ratio,Aspergillus flavus [18],2.96
same,Activity,Aspergillus fumigatus [19],26%
same,Activity,Aspergillus fumigatus [20],36%
same,Activity,Aspergillus terreus [21],30%
same,Activity,Aspergillus terreus [22],44%
same,Activity,Aspergillus flavus [23],16%
same,Activity,Aspergillus flavus [24],16%
same,Activity,Aspergillus fumigatus [25],Active
same,Activity,Aspergillus fumigatus [26],Active
same,Activity,Aspergillus terreus [27],Active
same,Activity,Aspergillus terreus [28],Active
same,Activity,Aspergillus flavus [29],Active
same,Activity,Aspergillus flavus [30],Active
same,Activity,Aspergillus fumigatus [31],Active
same,Activity,Aspergillus fumigatus [32],Active
same,Activity,Aspergillus terreus [33],Active
same,Activity,Aspergillus terreus [34],Active
same,Activity,Aspergillus flavus [35],Active
same,Activity,Aspergillus flavus [36],Active
same,Activity,Aspergillus fumigatus [37],Active
same,Activity,Aspergillus fumigatus [38],Active
same,Activity,Aspergillus terreus [39],Active
same,Activity,Aspergillus terreus [40],Active
same,Activity,Aspergillus flavus [41],Active
same,Activity,Aspergillus flavus [42],Active
same,Activity,Aspergillus fumigatus [43],inactive
same,Activity,Aspergillus fumigatus [44],inactive
same,Activity,Aspergillus terreus [45],inactive
same,Activity,Aspergillus terreus [46],inactive
same,Activity,Aspergillus flavus [47],inactive
same,Activity,Aspergillus flavus [48],inactive
same,Activity,Aspergillus fumigatus [49],inactive
same,Activity,Aspergillus fumigatus [50],inactive
same,Activity,Aspergillus terreus [51],inactive
same,Activity,Aspergillus terreus [52],inactive
same,Activity,Aspergillus flavus [53],inactive
same,Activity,Aspergillus flavus [54],inactive
